# Data reported in patent US7910622B2, “Modulation of bacterial quorum sensing with synthetic ligands” (Wisconsin Alumni Research Foundation, priority 2007, dated 2011).
# pEC50, pIC50: −log10 of the molar value.
# Assays:
# Test in all cases: cell-based
# TraR = target: T1, TraR (Agrobacterium tumefaciens, UniProt P33905); conditions: for A. tumefaciens-TraR Activation [%]: 10 μM ligand; for A. tumefaciens-TraR Inhibition [%]: 10 μM synthetic ligand against 100 nM OOHL
# T1 construct: These strains lack their AHL synthase (I) genes, but retain their native R genes; endogenous in cells; host or cells: A. tumefaciens WCF47 (Δ-traI) with PtraI-lacZ plasmid pCF372
# T1 sequence (P33905 whole entry): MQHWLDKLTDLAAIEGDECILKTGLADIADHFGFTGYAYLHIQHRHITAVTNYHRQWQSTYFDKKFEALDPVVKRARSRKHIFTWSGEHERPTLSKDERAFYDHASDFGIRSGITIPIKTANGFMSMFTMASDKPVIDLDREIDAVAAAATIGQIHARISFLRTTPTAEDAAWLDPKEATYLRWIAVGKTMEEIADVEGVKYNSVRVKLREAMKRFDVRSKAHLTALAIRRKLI
# Experimental: A. tumefaciens reporter gene assay protocols. […] An overnight culture of A. tumefaciens WCF47 (pCF372) was diluted to an OD600 of 0.1 in fresh AB minimal medium containing 400 μg/mL octopine and 50 μg/mL streptomycin. A 200 μL-portion of the diluted culture was added to each well of the multititer plate containing AHLs. Plates were grown at 28° C. for 18-20 h in a rotary shaking incubator (200 rpm). The cultures were then assayed for β-galactosidase activity following the Miller assay method. Briefly, 200 μL aliquots of bacteria from each of the wells were added to wells of a polystyrene 96-well plate and the OD600 of each well was recorded. Next, 50 μL aliquots from each well were transferred to a solvent resistant 96-well plate containing 200 μL Z buffer, 8 μL CHCl3 and 4 μL 0.1% aq. sodium dodecylsulfate (SDS). This suspension was mixed via repetitive pipetting, after which the CHCl3 was allowed to settle. A 100-μL aliquot from each well was transferred to a fresh polystyrene 96-well plate, and 20 μL of substrate, o-nitrophenyl-β-D-galactopyranoside (ONPG, 4 μg/mL in phosphate buffer), was added at time zero. After the development of appropriate yellow color (ca. 15-35 min), the reaction was terminated by the addition of 50 μL of 1 M Na2CO3. Absorbance at 420 nm and 550 nm was measured for each well using a plate reader, and Miller units were calculated according to standard methods.
# (§1) Dose response reporter gene assays. […] IC50 and EC50 values were calculated using GraphPad Prism software (v. 4.0) using a sigmoidal curve fit.
# A. tumefaciens reporter gene assay protocols. […] An overnight culture of A. tumefaciens WCF47 (pCF372) was diluted 1:10 with fresh AB minimal medium containing 400 μg/mL octopine and 50 μg/mL streptomycin. A 200 μL portion of the diluted culture was added to each well of the multititer plate containing AHLs. Plates were incubated at 28° C. for 18-24 h. The cultures were then assayed for β-galactosidase activity following the Miller assay method. Briefly, 200 μL aliquots of bacteria from each of the wells were added to wells of a 96-well multititer plate, and the OD600 of each well was recorded. Next, 50 μL aliquots from each well were transferred to a solvent resistant 96-well multititer plate containing 200 μL Z buffer, 8 μL CHCl3 and 4 μL 0.1% aq. SDS. This suspension was mixed via repetitive pipetting, after which the CHCl3 was allowed to settle. A 100 μL aliquot from each well was transferred to a fresh 96-well multititer plate, and 20 μL of substrate, o-nitrophenyl-β-D-galactopyranoside (ONPG, 4 μg/mL in phosphate buffer), was added at time zero. After the development of appropriate yellow color (ca. 20-30 min), the reaction was terminated by the addition of 50 μL of 1 M Na2CO3. Absorbances at 420 nm and 550 nm were measured for each well using a plate reader, and Miller units were calculated according to standard methods.
# as §1
# LasR [1] = target: T2, LasR (Pseudomonas aeruginosa, UniProt P25084); type: cell-based; conditions: for E. coli-LasR Inhibition [%]: 5 μM synthetic ligand against 7.5 nM OdDHL
# T2 construct: expressed in transfected cells; host or cells: E. coli DH5α (pJN105L pSC11), arabinose-induced
# T2 sequence (P25084 whole entry): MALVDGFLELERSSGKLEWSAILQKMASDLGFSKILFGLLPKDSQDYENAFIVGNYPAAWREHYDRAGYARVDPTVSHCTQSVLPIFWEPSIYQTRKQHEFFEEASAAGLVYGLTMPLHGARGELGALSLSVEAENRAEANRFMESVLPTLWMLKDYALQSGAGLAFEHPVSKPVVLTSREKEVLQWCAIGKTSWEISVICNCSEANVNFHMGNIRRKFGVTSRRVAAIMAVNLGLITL
# Experimental: (§2) E. coli LasR reporter gene assay protocols. […] An overnight culture of E. coli DH5a (pJN105L pSC11) grown at 37° C. was subculture by diluting 1/10 in fresh LB medium containing 100 μg/mL ampicillin and 15 μg/mL gentamicin and shaking at 37° C. until OD600=0.3. Arabinose (4 mg/mL) was then added to induce the LasR promoter and a 200 μL-portion of this culture was added to each well of the multititer plate containing AHLs. Plates were grown at 37° C. for 2 hours in a rotary shaking incubator (200 rpm; OD600=0.45). The cultures were then assayed for activity following the identical β-galactosidase assay protocols used in the A. tumefaciens reporter gene assays.
# as §1
# (§3) E. coli LasR reporter gene assay protocols. […] An overnight culture of E. coli DH5α (pJN105L pSC11) was diluted 1:10 with fresh LB medium containing 100 μg/mL ampicillin and 15 μg/mL gentamicin. This sub-culture was incubated at 37° C. until OD600=0.3 (4-6 h). Arabinose (4 mg/mL) was then added to induce the LasR promoter, and a 200 μL portion of this culture was added to each well of the multititer plate containing AHLs. Plates were incubated at 37° C. until OD600=0.45 (4-6 h). The cultures were then assayed for LasR activity following the identical β-galactosidase assay protocols used in the A. tumefaciens reporter gene assays (see above).
# as §1
# LasR [2] = target: T2, LasR; conditions: for E. coli-LasR Activation [%]: 5 μM ligand; for pEC50: read-out: LasR EC50
# Experimental: as §2, §1, §3, §1
# LuxR [3] = target: T3, LuxR (Aliivibrio fischeri, UniProt P35327); type: cell-based, Vibrio fischeri; conditions: for pIC50: LuxR IC50, determined against 5 μM OHHL; for inhibition at 5 µM: read-out: V. fischeri-LuxR Inhibition [%], 5 μM synthetic ligand against 5 μM OHHL; for inhibition at 5 µM / V. fischeri-LuxR Inhibition [%]: V. fischeri ES114 (Δ-luxI), normalized to OHHL; for V. fischeri-LuxR Inhibition [%]: 5 μM synthetic ligand against 5 μM OHHL
# T3 construct: a Δ-luxI derivative of V. fischeri ES114, in which the native lux operon behaves as the bioluminescent reporter; endogenous in cells; host or cells: V. fischeri ES114 (Δ-luxI)
# T3 sequence (P35327 whole entry): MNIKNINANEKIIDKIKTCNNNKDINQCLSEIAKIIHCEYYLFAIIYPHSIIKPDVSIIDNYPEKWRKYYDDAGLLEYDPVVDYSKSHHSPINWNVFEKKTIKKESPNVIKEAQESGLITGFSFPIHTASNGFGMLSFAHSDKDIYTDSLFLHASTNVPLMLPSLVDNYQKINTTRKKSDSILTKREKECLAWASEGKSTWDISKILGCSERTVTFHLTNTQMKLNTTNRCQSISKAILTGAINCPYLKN
# Experimental: (§4) Luminescence assays. For agonism assays, an appropriate amount of AHL stock solution was added into a 96-well plate. An overnight culture of E. coli or V. fischeri was diluted 1:10 with appropriate media (LB plus 10 μg/mL tetracycline for E. coli; LBS for V. fischeri). A 200-μL portion of the diluted culture was added to each well of the plate. Plates were grown for 4-8 h with shaking (200 rpm; 30° C. for E. coli and RT for V. fischeri). Luminescence was measured using a multilabel plate reader and normalized to cell density. […] All assays were performed in triplicate. Graphpad Prism software was used to calculate IC50 and EC50 values.
# (§5) Vibrio fischeri assay procedures. […] An overnight culture of V. fischeri ES114 (WT, Δ-luxI or Δ-luxR) was diluted 1:10 with LBS medium. A-200 μL portion of the diluted culture was added to each well of the plate. Plates were grown at RT with shaking (200 rpm) until the OD600=0.35-0.4 (4-6 h). Luminescence then was measured and normalized to cell density per well. […] All assays were performed in triplicate. IC50 and EC50 values were calculated using GraphPad Prism software using a sigmoidal curve fit.
# (§6) V. fischeri reporter gene assay protocols. […] An overnight culture of V. fischeri ES114 (D-luxI) was diluted 1:10 with LBS medium. A 200-μL portion of the diluted culture was added to each well of the multititer plate. Plates were grown at RT with shaking (200 rpm) until the OD600=0.35-0.4 (4-6 h). Luminescence then was measured and normalized to cell density per well.
# as §1
# as §6, with “(Δ-luxI)” for “(D-luxI)”, “A200 μL” for “A 200-μL”, “incubated” for “grown”, “RT” for “RT with shaking (200 rpm)”
# as §1
# LuxR [4] = target: T3, LuxR; set-up: species or system Vibrio fischeri; conditions: for V. fischeri-LuxR Activation [%]: 200 μM ligand
# Experimental: as §4, §5, §6, §1
# as §6, with “(Δ-luxI)” for “(D-luxI)”, “A200 μL” for “A 200-μL”, “incubated” for “grown”, “RT” for “RT with shaking (200 rpm)”
# as §1
# [5] = E. coli DH5α (pJN105L pSC11), normalized to OdDHL
# [6] = A. tumefaciens WCF47 (pCF372), normalized to OOHL
# [7] = V. fischeri ES114 (Δ-luxI), normalized to OHHL
Molecule,E. coli-LasR Inhibition [%] (LasR [1]; [5]),pIC50 (LuxR [3]),A. tumefaciens-TraR Activation [%] (TraR; [6]),A. tumefaciens-TraR Inhibition [%] (TraR; [6]),E. coli-LasR Activation [%] (LasR [2]; [5]),V. fischeri-LuxR Activation [%] (LuxR [4]; [7]),V. fischeri-LuxR Inhibition [%] (LuxR [3]),also measured
"CCCCCCCC(=O)N[C@H]1CCOC1=O [A3, C8 AHL]",43,6.11,–,–,–,–,–,"pIC50 (TraR; determined against 100 nM OOHL, read-out: TraR IC50): 6.11; activation at 10 µM (TraR; read-out: A. tumefaciens-TraR Activation [%]): 7%; inhibition at 10 µM (TraR; read-out: A. tumefaciens-TraR Inhibition [%], 10 μM synthetic ligand against 100 nM OOHL, A. tumefaciens WCF47 (pCF372), normalized to OOHL): 83%; pIC50 (LasR [1]; determined against 7.5 nM OdDHL, read-out: LasR IC50): 5.76; inhibition at 5 µM (LasR [1]; read-out: E. coli-LasR Inhibition [%], 5 μM synthetic ligand against 7.5 nM OdDHL, E. coli DH5α (pJN105L pSC11), normalized to OdDHL): ≥ 50%; activation at 5 µM (LasR [2]; read-out: E. coli-LasR Activation [%], 5 μM ligand, E. coli DH5α (pJN105L pSC11), normalized to OdDHL): 1%; inhibition at 5 µM (LuxR [3]): 86%; activation at 200 µM (LuxR [4]; read-out: V. fischeri-LuxR Activation [%], 200 μM ligand, V. fischeri ES114 (Δ-luxI), normalized to OHHL): 12%"
O=C(CC(=O)N[C@@H]1CCOC1=O)Cc1ccccc1 [A25],−7,–,2,50,84,3,–,pEC50 (LasR [2]): 6.27
D-enantiomer of OOHL [A24],16,–,4,6,0,2,7,–
4-methyl PHL [C19],–,–,–,–,–,–,–,"Activation (%) (TraR; A. tumefaciens-TraR, Library C primary agonism screen): 3%; Inhibition (%) (TraR; A. tumefaciens-TraR, Library C primary antagonism screen): 21%; Inhibition (%) (LasR [1]; E. coli-LasR, Library C primary antagonism screen): 11%; Activation (%) (LasR [2]; E. coli-LasR, Library C primary agonism screen): 0%; Inhibition (%) (LuxR [3]; V. fischeri-LuxR, Library C primary antagonism screen): 58%; Activation (%) (LuxR [4]; V. fischeri-LuxR, Library C primary agonism screen): 1%"
C=CCCC(=O)N[C@H]1CCOC1=O [A23],12,–,0,5,0,2,18,–
COc1ccccc1C1CCN(c2ccc(C=CC(=O)NC3CCOC3=O)cc2[N+](=O)[O-])CC1 (centres unmarked) [D18],34,–,0,16,32,2,19,"LasR: maximum induction value achievable (value in parentheses) (LasR [2]; at 200 μM ligand, relative to natural ligand): 32%; pEC50 (LasR [2]): 6.33"
O=C(CCCc1ccccc1)N[C@@H]1CCOC1=O [A26],–,–,0,31,0,3,41,–
"O=C(Cc1ccc(C(F)(F)F)cc1)N[C@H]1CCOC1=O [11s, 4-trifluoromethyl PHL]",–,6.22,–,–,–,–,–,inhibition at 5 µM (LuxR [3]): ~80%
"CCCCCCCCCC(=O)CC(=O)N[C@H]1CCOC1=O [A8, N-(3-oxo-dodecanoyl)-L-homoserine lactone, reference compound]",–,6.40,–,–,–,–,–,–
